In ChEMBL document CHEMBL1201862, “PubChem BioAssay data set” (2004):
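All cell lines were grown in 96-well plates and treated with compound for 48 hours. Abbreviation: GI50, concentration required for 50% inhibition of growth.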 Activity calls are given as the source filed them. Rule as the data show it: active = GI50 up to about 1.1 µM and inactive = higher.

Columns and labels:
Experiment in all cases: inhibition of tumour cell growth, NCI panel, 48 h
[1] = tested on: 786-0
[2] = tested on: A498
[3] = tested on: ACHN
[4] = tested on: DU-145
[5] = tested on: Hs-578T
[6] = tested on: IGROV-1
[7] = tested on: K562
[8] = tested on: M14
[9] = tested on: MCF7
[10] = tested on: MOLT-4
[11] = tested on: NCI-H23
[12] = tested on: OVCAR-5
[13] = tested on: SK-MEL-5
[14] = tested on: SK-OV-3
[15] = tested on: SN12C
[16] = tested on: SNB-75
[17] = tested on: SW-620
[18] = tested on: UACC-62
[19] = tested on: MDA-N
[20] = tested on: NCI-H522

| SMILES | GI50 [1] | GI50 [2] | GI50 [3] | GI50 [4] | GI50 [5] | GI50 [6] | GI50 [7] | GI50 [8] | GI50 [9] | GI50 [10] | GI50 [11] | GI50 [12] | GI50 [13] | GI50 [14] | GI50 [15] | GI50 [16] | GI50 [17] | GI50 [18] | GI50 [19] | GI50 [20] |
| --- | --- | --- | --- | --- | --- | --- | --- | --- | --- | --- | --- | --- | --- | --- | --- | --- | --- | --- | --- | --- |
| C#CCN(CC#C)C(=O)C(=O)c1c[nH]c2ccc(OC)cc12 | 16.6 µM (inactive) | 15.1 µM (inactive) | 21.3 µM (inactive) | 39.1 µM (inactive) | 16.1 µM (inactive) | 33 µM (inactive) | 18.6 µM (inactive) | 18.5 µM (inactive) | 18.6 µM (inactive) | > 10 µM (inactive) | 22.4 µM (inactive) | 17.4 µM (inactive) | 15.8 µM (inactive) | 17.8 µM (inactive) | 15.3 µM (inactive) | 20.2 µM (inactive) | 20.3 µM (inactive) | 19.5 µM (inactive) | – | – |
| O=[PH]1c2ccccc2Nc2ccccc21 | > 100 µM (inactive) | 21.7 µM (inactive) | > 100 µM (inactive) | 98.6 µM (inactive) | – | > 100 µM (inactive) | 21.6 µM (inactive) | > 100 µM (inactive) | > 100 µM (inactive) | 26.2 µM (inactive) | > 100 µM (inactive) | > 100 µM (inactive) | > 100 µM (inactive) | > 100 µM (inactive) | > 100 µM (inactive) | > 100 µM (inactive) | 63.7 µM (inactive) | > 100 µM (inactive) | > 100 µM (inactive) | 74.3 µM (inactive) |
| Cc1ccccc1/N=N/c1cc(C)c(/N=N/c2c(O)ccc3ccccc23)cc1C | > 100 µM (inactive) | > 100 µM (inactive) | > 100 µM (inactive) | > 100 µM (inactive) | 55.8 µM (inactive) | > 100 µM (inactive) | > 100 µM (inactive) | > 100 µM (inactive) | – | > 100 µM (inactive) | > 100 µM (inactive) | > 100 µM (inactive) | > 100 µM (inactive) | > 100 µM (inactive) | > 100 µM (inactive) | 73.1 µM (inactive) | > 100 µM (inactive) | > 100 µM (inactive) | > 100 µM (inactive) | > 100 µM (inactive) |
| CC(C)=Cc1cc(CCC/C(C)=C/Cc2c(O)cc(C)c(C(=O)O)c2O)co1 | > 100 µM (inactive) | – | > 100 µM (inactive) | > 100 µM (inactive) | 26.2 µM (inactive) | > 100 µM (inactive) | 0.203 µM (active) | > 100 µM (inactive) | > 100 µM (inactive) | – | > 100 µM (inactive) | > 100 µM (inactive) | > 100 µM (inactive) | – | > 100 µM (inactive) | > 100 µM (inactive) | > 100 µM (inactive) | > 100 µM (inactive) | – | 12.9 µM (inactive) |
| O=Cc1c(C(=O)O)[nH]c(=O)[nH]c1=O | > 100 µM (inactive) | > 100 µM (inactive) | > 100 µM (inactive) | > 100 µM (inactive) | > 100 µM (inactive) | > 100 µM (inactive) | > 100 µM (inactive) | > 100 µM (inactive) | – | > 100 µM (inactive) | > 100 µM (inactive) | 39.8 µM (inactive) | 98.6 µM (inactive) | > 100 µM (inactive) | > 100 µM (inactive) | > 100 µM (inactive) | > 100 µM (inactive) | > 100 µM (inactive) | > 100 µM (inactive) | 58.3 µM (inactive) |
| CC(=O)OCC1OC(Sc2nc(-c3ccc(C)cc3)c(C#N)c(=O)n2C2OC(COC(C)=O)C(OC(C)=O)C(OC(C)=O)C2OC(C)=O)C(OC(C)=O)C(OC(C)=O)C1OC(C)=O (centres undefined) | > 100 µM (inactive) | > 100 µM (inactive) | > 100 µM (inactive) | > 100 µM (inactive) | > 100 µM (inactive) | > 100 µM (inactive) | – | – | > 100 µM (inactive) | > 100 µM (inactive) | > 100 µM (inactive) | > 100 µM (inactive) | > 100 µM (inactive) | > 100 µM (inactive) | > 100 µM (inactive) | > 100 µM (inactive) | > 100 µM (inactive) | > 100 µM (inactive) | – | > 100 µM (inactive) |
| Cc1ccc(-c2n[nH]c(CC#N)n2)cc1 | > 100 µM (inactive) | > 100 µM (inactive) | > 100 µM (inactive) | > 100 µM (inactive) | 39.7 µM (inactive) | > 100 µM (inactive) | > 100 µM (inactive) | > 100 µM (inactive) | > 100 µM (inactive) | > 100 µM (inactive) | > 100 µM (inactive) | > 100 µM (inactive) | > 100 µM (inactive) | > 100 µM (inactive) | > 100 µM (inactive) | > 100 µM (inactive) | > 100 µM (inactive) | > 100 µM (inactive) | – | > 100 µM (inactive) |
| O=c1c(Cl)c(Cl)cnn1CCCl | 12.2 µM (inactive) | 13.1 µM (inactive) | 0.904 µM (active) | 18.7 µM (inactive) | 3.25 µM (inactive) | 1.95 µM (inactive) | 2.06 µM (inactive) | 2.67 µM (inactive) | – | 2.54 µM (inactive) | 2.52 µM (inactive) | 16.5 µM (inactive) | 3.4 µM (inactive) | 3.56 µM (inactive) | 12.9 µM (inactive) | 11.1 µM (inactive) | 1.9 µM (inactive) | 3.4 µM (inactive) | – | 0.558 µM (active) |
| Cc1ccc(-c2nc(-c3cnccn3)n(C3OC(CO)C(O)C(O)C3O)n2)cc1 (centres undefined) | > 100 µM (inactive) | – | – | > 100 µM (inactive) | – | > 100 µM (inactive) | > 100 µM (inactive) | > 100 µM (inactive) | > 100 µM (inactive) | > 100 µM (inactive) | > 100 µM (inactive) | > 100 µM (inactive) | > 100 µM (inactive) | – | > 100 µM (inactive) | > 100 µM (inactive) | > 100 µM (inactive) | > 100 µM (inactive) | > 100 µM (inactive) | > 100 µM (inactive) |
| Cc1cc(Br)cc(C)c1NC(=O)C(=O)C(C(=O)c1ccc2ccccc2c1)C1OC(=O)c2ccccc21 (centres undefined) | 6.03 µM (inactive) | 12 µM (inactive) | 15.2 µM (inactive) | – | – | 18.2 µM (inactive) | 5.93 µM (inactive) | 15.6 µM (inactive) | – | 2.31 µM (inactive) | 7.53 µM (inactive) | 7.14 µM (inactive) | 11.2 µM (inactive) | 78.5 µM (inactive) | 19.7 µM (inactive) | 14.3 µM (inactive) | 8.02 µM (inactive) | 12.9 µM (inactive) | – | 8.65 µM (inactive) |
| NC12CC3CC(C1)CC(C(=O)O)(C3)C2 | > 100 µM (inactive) | > 100 µM (inactive) | > 100 µM (inactive) | – | – | > 100 µM (inactive) | 2.73 µM (inactive) | > 100 µM (inactive) | – | > 100 µM (inactive) | > 100 µM (inactive) | > 100 µM (inactive) | > 100 µM (inactive) | > 100 µM (inactive) | > 100 µM (inactive) | > 100 µM (inactive) | > 100 µM (inactive) | > 100 µM (inactive) | – | > 100 µM (inactive) |
| COc1ccc(COC2CC(OC)OC(C)C2OC(=O)c2ccccc2)cc1 (centres undefined) | 74.1 µM (inactive) | 61.5 µM (inactive) | 24.3 µM (inactive) | – | – | 90.4 µM (inactive) | 27.2 µM (inactive) | 34.6 µM (inactive) | – | 15.6 µM (inactive) | 28.4 µM (inactive) | 30.2 µM (inactive) | 17 µM (inactive) | > 100 µM (inactive) | 57.4 µM (inactive) | 38.3 µM (inactive) | 46.1 µM (inactive) | 32.9 µM (inactive) | – | 30.6 µM (inactive) |
| CCOC(=O)CCCO | > 100 µM (inactive) | > 100 µM (inactive) | > 100 µM (inactive) | – | – | > 100 µM (inactive) | > 100 µM (inactive) | > 100 µM (inactive) | – | > 100 µM (inactive) | > 100 µM (inactive) | > 100 µM (inactive) | > 100 µM (inactive) | > 100 µM (inactive) | > 100 µM (inactive) | 71.3 µM (inactive) | > 100 µM (inactive) | > 100 µM (inactive) | – | > 100 µM (inactive) |
| O=C(CC(C(=O)c1ccsc1)c1ccsc1)c1ccsc1 (centres undefined) | > 100 µM (inactive) | > 100 µM (inactive) | > 100 µM (inactive) | > 100 µM (inactive) | > 100 µM (inactive) | > 100 µM (inactive) | 54.6 µM (inactive) | 50.2 µM (inactive) | 70.6 µM (inactive) | 35.6 µM (inactive) | 46.1 µM (inactive) | – | 43.5 µM (inactive) | 59.4 µM (inactive) | > 100 µM (inactive) | 56.5 µM (inactive) | > 100 µM (inactive) | 74.8 µM (inactive) | – | – |
| CC(C)(CN1C(=O)C(Cl)=C(Cl)C1=O)CN1C(=O)C(Cl)=C(Cl)C1=O | 11.7 µM (inactive) | 28.6 µM (inactive) | 9.44 µM (inactive) | – | – | 18.9 µM (inactive) | 1.64 µM (inactive) | 16.6 µM (inactive) | – | 0.966 µM (active) | 11.7 µM (inactive) | 19.8 µM (inactive) | 22.1 µM (inactive) | 33.3 µM (inactive) | 11.7 µM (inactive) | 22.2 µM (inactive) | 5 µM (inactive) | 14.1 µM (inactive) | – | 1.62 µM (inactive) |
| CC(=O)/C(=N\O)C(=O)NCCc1ccccc1 | 68.2 µM (inactive) | > 100 µM (inactive) | > 100 µM (inactive) | – | – | > 100 µM (inactive) | 68.7 µM (inactive) | > 100 µM (inactive) | – | > 100 µM (inactive) | > 100 µM (inactive) | > 100 µM (inactive) | > 100 µM (inactive) | > 100 µM (inactive) | > 100 µM (inactive) | > 100 µM (inactive) | 38.8 µM (inactive) | > 100 µM (inactive) | – | > 100 µM (inactive) |
